Data reported in patent US11771086B2, “Pest control composition including novel iminopyridine derivative” (priority 2012, dated 2023).
“And” between values parts separate entries of the source, which are not always exact repeats. Equal entries are not always repeated. Where two headings read alike, the source gives them in different places.

Tests used:
Type in all cases: in vivo
[1] = test system: Plutella xylostella; experiment: Reference Test Example 1 Pest control test of Plutella xylostella (foliar treatment, single agent); conditions: Plutella xylostella, foliar, 72 h
Source text: (§1) After an air drying process, second instar larvae were released thereto. […] Test in duplicate.

[2] = test system: Spodoptera litura; experiment: Reference Test Example 2 Pest control test of Spodoptera litura (foliar treatment, single agent); conditions: 72 h
Source text: After an air drying process, third instar larvae were released thereto. […] Test in duplicate.

[3] = test system: Aphis gossypii; experiment: Reference Test Example 3 Pest control test of Aphis gossypii (foliar treatment, single agent); conditions: Aphis gossypii, foliar, 72 h
Protocol: After an air drying process, first instar larvae were released thereto. Thereafter, the larvae were left to stand in a thermostatic chamber (16 hours of light period-8 hours of dark period) at 25° C. […] Test in duplicate. Mortality (%)={number of dead larvae/(number of survived larvae+number of dead larvae)}×100

[4] = test system: Nilaparvata lugens; experiment: Reference Test Example 5 Pest control test of Nilaparvata lugens (foliar treatment, single agent); conditions: 144 h
Source text: as §1

[5] = test system: Sogatella furcifera; experiment: Reference Test Example 6 Pest control test of Sogatella furcifera (foliar treatment, single agent); conditions: 96 h
Source text: as §1

[6] = test system: Nephotettix cincticeps; experiment: Reference Test Example 7 Pest control test of Nephotettix cincticeps (foliar treatment, single agent); conditions: 96 h
Source text: as §1

[7] = test system: Trialeurodes vaporariorum; experiment: Reference Test Example 8 Pest control test of Trialeurodes vaporariorum (leaf disk spray on eggs); conditions: foliar
Source text: Adult greenhouse whiteflies were released to a cucumber in pot culture and allowed to lay eggs overnight. […] Test in duplicate. Mortality of larvae (%)={(number of eggs laid−number of survived larvae)/number of eggs laid)}×100

[8] = test system: Trigonotylus caelestialium; experiment: Reference Test Example 10 Pest control test of Trigonotylus caelestialium (dipping treatment); conditions: 72 h
Protocol: After an air drying process, the wheat seedling leaves and stems were placed into a glass tube, and two second instar larvae of Trigonotylus coelestialium were released to the same glass tube. After the larvae were released, the tube was lidded to leave the larvae to stand in a thermostatic chamber at 25° C. In order to supply water to the wheat during the test, water was given to the wheat from the bottom of the glass tube. […] Test in triplicate.

[9] = test system: Plautia crossota stali; experiment: Reference Test Example 11 Pest control test of Plautia crossota stali (sprayed young apple fruit); conditions: foliar, 144 h
Source text: After an air drying process, the young fruit was placed into a plastic cup, and two adults of Plautia crossota stali were released thereto. […] Mortality of adults (%)={number of dead adults/(number of survived adults+number of dead adults)}×100

[10] = test system: Lissorhoptrus oryzophilus; experiment: Reference Test Example 17 Pest control test of Lissorhoptrus oryzophilus (soil drench, single agent); conditions: throughput of 0.1 mg/seedling, adults, three days after the release
Source text: Two days after the treatment, five adults of Lissorhoptrus oryzophilus were each released thereto. […] Test in duplicate.

[11] = test system: Nilaparvata lugens resistant population I; experiment: Reference Test Example 19 Pest control test of Nilaparvata lugens, resistant population I (soil drench); conditions: for Insecticidal effects against Nilaparvata lugens (death rate %), Resistant population I: soil drench, six days
Protocol: Three days after the treatment, ten second instar larvae of Nilaparvata lugens, which had been collected outdoors and proliferated indoors, were each released to the rice seedling. […] Test in duplicate.
Furthermore, for comparison, the test against a species of Nilaparvata lugens which is highly susceptible to imidacloprid was performed by the same method as described above, and the results thereof are shown in Table 45. […] Meanwhile, the death rates of imidacloprid at 0.05 mg/seedling were (susceptible species) 100%, (resistant population I) 38% and (resistant population II) 69%, and the insecticidal effect thereof was also low even at a high dose. From the above results, it became obvious that Compound P212 and Compound 1-20 have high insecticidal effects even against Nilaparvata lugens resistance against imidacloprid.
Further, for the origin of test pests, bugs collected outdoors from the Kumamoto prefecture (I) in 2007 and from the Fukuoka prefecture (II) in 2005 as resistant population of Nilaparvata lugens, and bugs collected from the Kagoshima prefecture and then successively reared indoors for a long time as the imidacloprid susceptible population of Nilaparvata lugens were used.

[12] = test system: Laodelphax striatella; experiment: whole plant or invertebrate
Protocol: (§2) After an air drying process, second instar larvae were released thereto. […] The test was performed in duplicate.
(§3) Method for Judging Synergistic Effects

[13] = test system: Plutella xylostella; experiment: whole plant or invertebrate
Protocol: as §2, §3

[14] = test system: Aphis gossypii; experiment: whole plant or invertebrate; conditions: Aphis gossypii
Protocol: The test was performed in duplicate.
as §3

[15] = test system: Spodoptera litura; experiment: whole plant or invertebrate; conditions: Spodoptera litura
Protocol: After an air drying process, third instar larvae were released thereto. […] The test was performed in duplicate.
as §3

[16] = test system: Chilo suppressalis; conditions: for Theoretical value by Colby's equation: Chilo suppressalis; for Mortality of single agent against Chilo suppressalis: soil irrigation, six days after release
Protocol: After standing for 3 days, second instar larvae were released thereto. […] The test was performed in duplicate.
as §3

[17] = test system: Callosobruchus chinensis
Protocol: A compound of Formula (I) and the insecticide indicated below, prepared in predetermined concentrations using acetone, were separately topically applied to the back of the same adult Callosobruchus chinensis. […] The test was performed in duplicate. Insect mortality (%)={number of dead insects/(number of survived insects+number of dead insects)}×100
(A: 100−(insect mortality for treatment with only Compound P212)
B: 100−(insect mortality for treatment with only the insecticide fipronil or imidacloprid))
as §3

**Q.** `O=C(N=c1ccccn1Cc1ccc(Cl)nc1)C(F)(F)F` [Compound P212, N-[1-((6-chloropyridin-3-yl)methyl)pyridin-2(1H)-ylidene]-2,2,2-trifluoroacetamide] was tested. Which mortality at 100 ppm [1] did it give?
**A.** ≥ 80%

**Q.** And the mortality at 500 ppm [2]?
**A.** ≥ 80%

**Q.** And the mortality at 100 ppm [3]?
**A.** ≥ 80%

**Q.** And the mortality at 100 ppm [4]?
**A.** ≥ 80%

**Q.** What about the mortality at 100 ppm [5] of the same compound?
**A.** ≥ 80%

**Q.** And the mortality at 100 ppm [6]?
**A.** ≥ 80%

**Q.** What about the mortality at 100 ppm [7] of the same compound?
**A.** ≥ 80%

**Q.** And the mortality at 50 ppm [8]?
**A.** ≥ 80%

**Q.** And the mortality at 50 ppm [9]?
**A.** ≥ 60%

**Q.** What about the mortality [10] of the same compound?
**A.** ≥ 80%

**Q.** And the “death rates of larvae” value ([11]; resistant population I, 0.005 mg/seedling, six days after the release)?
**A.** 95%

**Q.** What about the “Insecticidal effects against Nilaparvata lugens (death rate %), Resistant population I” value ([11]; throughput 0.005 mg/seedling) of the same compound?
**A.** 95%

**Q.** What about the “Insecticidal effects against Nilaparvata lugens (death rate %), Resistant population I” value ([11]; throughput 0.05 mg/seedling) of the same compound?
**A.** 100%

**Q.** And the “Theoretical value by Colby's equation” value ([12]; Laodelphax striatella foliar, single agent 0.625 ppm (other component 0))?
**A.** 95%

**Q.** And the mortality at 0.625 ppm ([12]; Laodelphax striatellus, foliar, 72 h, read-out: Mortality of single agent against Laodelphax striatella)?
**A.** 95%

**Q.** What about the mortality at 1 ppm ([13]; Plutella xylostella, foliar, 72 h, read-out: Mortality of single agent against Plutella xylostella, single agent 1.0 ppm, cabbage leaf disk spray, three days) of the same compound?
**A.** 40%

**Q.** And the mortality at 1.25 ppm ([13]; Plutella xylostella, foliar, 72 h, read-out: Mortality of single agent against Plutella xylostella, single agent 1.25 ppm, cabbage leaf disk spray, three days)?
**A.** 0%

**Q.** And the mortality at 2 ppm ([13]; Plutella xylostella, foliar, 72 h, read-out: Mortality of single agent against Plutella xylostella, single agent 2.0 ppm, cabbage leaf disk spray, three days)?
**A.** 60%

**Q.** And the “Theoretical value by Colby's equation” value ([13]; Plutella xylostella, single agent 1.0 ppm (other component 0))?
**A.** 40% and 30%

**Q.** And the “Theoretical value by Colby's equation” value ([13]; Plutella xylostella, single agent 1.25 ppm (other component 0))?
**A.** 0%

**Q.** And the “Theoretical value by Colby's equation” value ([13]; Plutella xylostella, single agent 2.0 ppm (other component 0))?
**A.** 60% and 50%

**Q.** What about the “Mortality of single agent against Plutella xylostella” value ([13]; single agent 1.0 ppm, cabbage leaf disk spray, three days) of the same compound?
**A.** 30%

**Q.** And the “Mortality of single agent against Plutella xylostella” value ([13]; single agent 2.0 ppm, cabbage leaf disk spray, three days)?
**A.** 50%

**Q.** And the mortality at 0.313 ppm ([14]; foliar, 72 h, read-out: Mortality of single agent against Aphis gossypii)?
**A.** 45%

**Q.** And the “Theoretical value by Colby's equation” value ([14]; single agent 0.313 ppm (other component 0))?
**A.** 45%

**Q.** And the mortality at 50 ppm ([15]; foliar, 72 h, read-out: Mortality of single agent against Spodoptera litura, single agent 50 ppm, cabbage leaf disk spray, three days)?
**A.** 10%

**Q.** What about the “Theoretical value by Colby's equation” value ([15]; single agent 50 ppm (other component 0)) of the same compound?
**A.** 10%

**Q.** And the “Theoretical value by Colby's equation” value ([16]; single agent 0.002 mg/seedling (other component 0))?
**A.** 40%

**Q.** And the “Theoretical value by Colby's equation” value ([16]; single agent 0.01 mg/seedling (other component 0))?
**A.** 33%

**Q.** And the “Mortality of single agent against Chilo suppressalis” value ([16]; single agent 0.002 mg/seedling)?
**A.** 40%

**Q.** What about the “Mortality of single agent against Chilo suppressalis” value ([16]; single agent 0.01 mg/seedling) of the same compound?
**A.** 33%

**Q.** What about the “Theoretical value by Colby's equation” value ([17]; Callosobruchus chinensis, single agent 0.2 ng/head (other component 0)) of the same compound?
**A.** 20%

**Q.** What about the “Mortality of single agent against Callosobruchus chinensis” value ([17]; single agent 0.2 ng/head, topical, one day) of the same compound?
**A.** 20%
